According to patent US7569547B2, “Inhibiting furin with polybasic peptides” (Board of Supervisors of Louisiana State University and …, priority 2001, dated 2009):
Entries after “also recorded” stand apart in the source; their conditions may differ.

Columns and labels:
HEK293 cells = experiment: Growth of HEK293 cells monitored with the dye WST (cytotoxicity); type: cell-based, human
Method: HEK293 cells were seeded into 96-well plates at the densities indicated. Their growth rates were monitored using the dye WST, which is cleaved by mitochondrial dehydrogenases to a […] dye only in viable cells.

HIV = experiment: Formation of syncytia by HIV in vitro in MT4 T cells; type: cell-based; settings: micromolar concentrations, MT4 line of T cells, preliminary data (not shown)
Text: The administration of polyarginines and other polybasic peptides in accordance with the present invention may be used to combat bacterial and viral infections, and to inhibit the growth of certain cancers. Preliminary data, for example, show activity against Pseudomonas exotoxin, and against HIV.

PC2 = target: T1, PC2 (Mus musculus, UniProt P21661)
T1 sequence (P21661 109-637): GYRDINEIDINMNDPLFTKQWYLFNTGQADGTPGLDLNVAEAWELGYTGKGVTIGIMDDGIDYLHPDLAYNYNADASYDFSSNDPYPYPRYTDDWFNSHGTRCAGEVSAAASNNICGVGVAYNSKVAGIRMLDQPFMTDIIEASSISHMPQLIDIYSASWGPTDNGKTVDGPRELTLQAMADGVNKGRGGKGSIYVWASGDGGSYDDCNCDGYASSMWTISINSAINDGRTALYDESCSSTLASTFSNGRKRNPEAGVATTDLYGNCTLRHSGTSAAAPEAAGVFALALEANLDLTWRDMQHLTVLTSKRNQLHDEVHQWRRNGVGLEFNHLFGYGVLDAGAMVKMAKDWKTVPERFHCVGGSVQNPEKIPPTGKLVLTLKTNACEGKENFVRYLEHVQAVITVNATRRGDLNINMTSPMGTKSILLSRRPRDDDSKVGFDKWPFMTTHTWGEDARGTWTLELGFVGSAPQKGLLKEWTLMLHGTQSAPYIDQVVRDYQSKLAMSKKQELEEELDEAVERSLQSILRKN

Structure (SMILES): N=C(N)NCCC[C@@H](NC(=O)[C@H](N)CCCN=C(N)N)C(=O)N[C@H](CCCNC(=N)N)C(=O)N[C@H](CCCNC(=N)N)C(=O)N[C@H](CCCNC(=N)N)C(=O)N[C@H](CCCN=C(N)N)C(=O)O [Hexa-D-arginine]
- mean absorbance at 450 nm (WST) (HEK293 cells; HEK293, 2 μM D6R, 51 hour): 0.69 ± 0.02
- mean absorbance at 450 nm (WST) (HEK293 cells; HEK293, 2 μM D6R, 75 hour): 1.25 ± 0.11
- mean absorbance at 450 nm (WST) (HEK293 cells; HEK293, 2 μM D6R, 99 hour): 1.42 ± 0.02
- mean absorbance at 450 nm (WST) (HEK293 cells; HEK293, 4 μM D6R, 51 hour): 0.64 ± 0.03
- mean absorbance at 450 nm (WST) (HEK293 cells; HEK293, 4 μM D6R, 75 hour): 1.28 ± 0.14
- mean absorbance at 450 nm (WST) (HEK293 cells; HEK293, 4 μM D6R, 99 hour): 1.39 ± 0.06
- mean absorbance at 450 nm (WST) (HEK293 cells; HEK293, 6 μM D6R, 51 hour): 0.63 ± 0.04
- mean absorbance at 450 nm (WST) (HEK293 cells; HEK293, 6 μM D6R, 75 hour): 1.13 ± 0.14
- mean absorbance at 450 nm (WST) (HEK293 cells; HEK293, 6 μM D6R, 99 hour): 1.48 ± 0.04
- mean absorbance at 450 nm (WST) (HEK293 cells; HEK293, 8 μM D6R, 51 hour): 0.67 ± 0.01
- mean absorbance at 450 nm (WST) (HEK293 cells; HEK293, 8 μM D6R, 75 hour): 1.36 ± 0.08
- mean absorbance at 450 nm (WST) (HEK293 cells; HEK293, 8 μM D6R, 99 hour): 1.40 ± 0.05
- mean absorbance at 450 nm (WST) (HEK293 cells; HEK293, 10 μM D6R, 51 hour): 0.64 ± 0.03
- mean absorbance at 450 nm (WST) (HEK293 cells; HEK293, 10 μM D6R, 75 hour): 1.28 ± 0.14
- mean absorbance at 450 nm (WST) (HEK293 cells; HEK293, 10 μM D6R, 99 hour): 1.49 ± 0.08
- mean absorbance at 450 nm (WST) (HEK293 cells; HEK293, 30 μM D6R, 51 hour): 0.64 ± 0.02
- mean absorbance at 450 nm (WST) (HEK293 cells; HEK293, 30 μM D6R, 75 hour): 1.29 ± 0.08
- mean absorbance at 450 nm (WST) (HEK293 cells; HEK293, 30 μM D6R, 99 hour): 1.45 ± 0.06
- mean absorbance at 450 nm (WST) (HEK293 cells; HEK293, 60 μM D6R, 51 hour): 0.66 ± 0.05
- mean absorbance at 450 nm (WST) (HEK293 cells; HEK293, 60 μM D6R, 75 hour): 1.17 ± 0.08
- mean absorbance at 450 nm (WST) (HEK293 cells; HEK293, 60 μM D6R, 99 hour): 1.48 ± 0.06
- mean absorbance at 450 nm (WST) (HEK293 cells; HEK293, 100 μM D6R, 51 hour): 0.62 ± 0.03
- mean absorbance at 450 nm (WST) (HEK293 cells; HEK293, 100 μM D6R, 75 hour): 1.19 ± 0.11
- mean absorbance at 450 nm (WST) (HEK293 cells; HEK293, 100 μM D6R, 99 hour): 1.47 ± 0.09
- effect on growth of the cells (HEK293 cells; HEK293 cells, 2-100 μM): did not significantly affect the growth of the cells
- cytotoxicity (HEK293 cells; HEK293 cells, up to 100 μM final concentration, preliminary data, listed as D6R): not toxic to cells; also recorded: did not appear to be cytotoxic
- formation of syncytia by HIV (HIV): inhibited the formation of syncytia

Structure (SMILES): N=C(N)NCCC[C@H](NC(=O)[C@H](CCCNC(=N)N)NC(=O)[C@H](CCCNC(=N)N)NC(=O)[C@H](CCCNC(=N)N)NC(=O)[C@H](CCCNC(=N)N)NC(=O)[C@H](CCCNC(=N)N)NC(=O)[C@H](CCCNC(=N)N)NC(=O)[C@H](CCCNC(=N)N)NC(=O)[C@@H](N)CCCNC(=N)N)C(=O)O [Nona-L-arginine]
- cleavage by PC2 (PC2): essentially no cleavage
